Assay results as given in patent US7763567B2, “Agrochemical compositions” (priority 2003, dated 2010).
Counter-ions that a name gives are not always drawn. Like-named read-outs stand apart in the source and are kept apart here.

How the values were obtained:
[1] = system: eight representative weed species; format: in vivo
Experimental: (§1) The bioperformance enhancement of paraquat in the presence of amines of the present invention was evaluated. An aqueous formulation of paraquat dichloride containing 0.5% by weight of amine (based on the weight of the parent amine and based on total spray volume) was applied using a moving track sprayer to eight representative weed species at 10, 20 and 40 g/ha (based on paraquat ion). The spray volume was equivalent to 200 l/ha.
(§2) Three replicates of each test were undertaken and the biological data (% activity where 0% represents no herbicidal effect and 100% represents complete kill) at 7 days after treatment is expressed in Table 4 as a mean over all species based on an average response over the combined rates. The results are compared with an equivalent formulation containing only paraquat chloride.
as §1, with “presence of some amines of” for “presence of amines of”, “dichloride containing 0.2% by weight” for “dichloride containing 0.5% by weight”
as §2, with “5” for “4”, “equivalent standard” for “equivalent”, “containing” for “containing only”, “chloride and 0.2% of an effective adjuvant blend” for “chloride.”

[2] = format: physicochemical; conditions: for loading at which compatible with compositions of WO 02/076212: actual amine
From the text: It is to be understood that the term physical incompatibility in relation to adjuvants used in bipyridyl compositions indicates either gross separation of one or more components of the composition which may or may not be accompanied by a significant change in formulation rheology or bulk homogeneity. It is not necessarily essential that the composition is fully homogeneous in a strict physical sense provided that the composition is substantially homogeneous in the bulk. Thus a slight separation of a second phase may be acceptable provided that the separated phase remains fully dispersed in the bulk. […] This is obviously undesirable for a number of reasons. The term physical compatibility indicates the reverse of physical incompatibility as defined above.

Sida spinosa (SIDSP) = format: in vivo
From the text: (§3) TEDA was first neutralized with hydrochloric acid to form the TEDA hydrochloride. An aqueous formulation of paraquat dichloride containing 0.5% by weight of TEDA based on total spray volume was applied to test species Ipomoea hederacea (IPOHE) and Sida spinosa (SIDSP) at 10 and 30 g/ha (based on paraquat ion). The spray volume was equivalent to 200 L/ha The biological data (% activity) at 6 days after treatment is expressed in Table 1 as an average response over the combined rates and is compared with an equivalent formulation containing only paraquat chloride.
(§4) The following compositions were compared using the general procedure of Example 1. TEDA was used in the form of its hydrochloride: • 1. An aqueous formulation containing paraquat dichloride and 0.5% by weight of TEDA hydrochloride based on total spray volume; • 2. An aqueous formulation containing paraquat dichloride and 0.5% by weight based on total spray volume of a mixture of TEDA hydrochloride and the surfactant EMPIGEN BB and TEDA at a ratio of TEDA to EMPIGEN BB of 5:2. EMPIGEN BB is lauryl betaine supplied at a concentration of 30%. The proportions given above and below are based on lauryl betaine content. • 3. An aqueous formulation (comparison) containing paraquat dichloride and 0.5% by weight based on total spray volume of EMPIGEN BB • 4. An aqueous formulation containing paraquat dichloride and 0.5% by weight based on total spray volume of a mixture of TEDA hydrochloride and the surfactant AGRIMUL PG2067 and TEDA at a ratio of TEDA to AGRIMUL PG2067 of 5:2. AGRIMUL PG2067 is an alkylpolyglycoside supplied at a concentration of 70%. The proportions given above and below are based on alkylpolyglycoside content. • 5. An aqueous formulation (comparison) containing paraquat chloride and 0.5% by weight based on total spray volume of AGRIMUL PG2067.

[3] = system: Ipomoea hederacea (IPOHE); format: in vivo
From the text: as §3, §4

[4] = Example 4, 0.5% by weight amine, paraquat 10, 20 and 40 g/ha, 200 l/ha, 7 days after treatment, mean over all species and combined rates, three replicates
[5] = Example 2, general procedure of Example 1, adjuvant 0.5% by weight of total spray volume, TEDA:surfactant 5:2
[6] = Example 3, procedure of Example 1, adjuvant 0.5% by weight of total spray volume, TEDA salts with anionic surfactants

## NCCN [EDA as HCl salt, ethylenediamine, reference compound]
[1]; in vivo
  Mean Activity (%): 54%

## C1CN2CCN1CC2 [TEDA, Triethylenediamine]
[2]
  loading at which compatible with compositions of WO 02/076212: ≥ 60 g/L
[1]; [4]
  Mean Activity (%): 61%
Sida spinosa (SIDSP); [5]
  % Activity SIDSP: 35.8%
Sida spinosa (SIDSP); [6]
  % Activity SIDSP: 45.9%
[3]; [5]
  % Activity IPOHE: 64.4%
[3]; [6]
  % Activity IPOHE: 63.8%

## NCCNCCNCCN [TETA as HCl salt, triethylenetetramine, reference compound]
[2]
  loading at which compatible with compositions of WO 02/076212: less than 30 g/l
[1]; in vivo
  Mean Activity (%): 60%

## CN(C)CCN(C)C [TMEDA as HCl salt, tetramethylethylenediamine]
[2]
  loading at which compatible with compositions of WO 02/076212: ≤ 30 g/L
[1]; [4]
  Mean Activity (%): 59%
[1]; Example 5, 0.2% by weight amine, paraquat 10, 20 and 40 g/ha, 200 l/ha, 7 days after treatment, mean over all species and combined rates, three replicates
  Mean Activity (%): 56%

## CCCCCCCCOC(=O)CC(C(=O)OCCCCCCCC)S(=O)(=O)O.[Na] (stereo not shown) [sodium dioctyl sulphosuccinate, reference compound]
[2]; about 120 g/l paraquat ion, about 80 g/l diquat ion, alginate, about 120 g/l magnesium sulphate heptahydrate
  level at which physical separation / two phases observed: below 10 g/l
